Measurements published in patent publication US12390441B2, “Immunomodulating o-het/aryl azalides” (Zoetis Services LLC, priority 2020, dated 2025).

Tests used:
[1] = tested on: IL-1β; assay: Whole blood assay, LPS stimulation, MSD cytokine detection; assay type: cell-based, bovine; settings: fresh whole bovine blood, LPS stimulation; drug concentration giving overstimulation (OS) of IL-1β
[2] = tested on: P. multocida 46572; assay: In vivo mouse lung infection challenge model (murine); parameters: species or system CD-1 female mice
Protocol: The challenge organism was P. multocida 46572. Target challenge concentration was 5×10^2 CFU/mouse. Isolated colonies from overnight growth (37° C. with 5% CO2) on trypticase soy agar (TSA II) blood plates were transferred to room temperature Brain Heart Infusion Broth (BHIB). The broth culture was incubated 3.5-4 hours to approximately mid-log phase of growth, as measured by forward light scatter at 600 nm (OD600, 0.200). The culture was centrifuged to collect the bacterial pellet. The pellet was re-suspended in BHIB and adjusted to provide an approximate concentration of 2.7 log^10 colony forming units (CFU) in 0.04 mL at the highest concentration. The challenge inoculum concentration was confirmed by serial dilutions of the inoculum for CFU enumeration. On Day −5, CD-1 female mice were received. Mice were given standard rodent diet and water ad libitum. On Day 0, bacterial inoculum (0.04 mL) was administered to each mouse (n=36) intranasally. Compounds of the invention were dosed at 20 mg/kg (0.1 mL) in a buffered (˜pH 5.4) propylene glycol, monothioglycerol and water solution by subcutaneous injection. Animals were observed from Days 1-10. The study was terminated on Day 10. In addition, some treatment groups were sampled at 6, 24, and 48 hours post bacterial challenge for RNA sequence analysis of lung tissue.
The murine efficacy model (P. multocida challenge) was optimized, and the treatment group size was powered to be able to observe statistically significant improvement of survival to expected ranges for immunomodulatory compounds. The experimental design was a randomized complete block design. Mice were individually identified and treatment groups comingled within a cage, with every treatment group equally represented across cages. Mortality was the primary variable. Mortality data was analyzed using a generalized mixed model with fixed effect of treatment and random effect of block. Survival time was also analyzed using the SAS PHREG (survival analysis) procedure to examine whether there were significant differences between treatment groups and the control group. Numerous compounds of the invention and M9 (positive control) were tested in this model at a dose of 20 mg/kg (Table 3). Typical percent survival for no treatment control is in the range of 0-20% based on study to study variation in challenge inoculum and rate of infection. […] Mouse survival for M9 was about 90-100%, further supporting its residual antibacterial properties against the bacterial strain. Harmonized survival accounts for % survival relative to vehicle (“−” control) and M9 (“+” control)) survival data (Table 3).

[3] = tested on: TNF-α; assay: Whole blood assay, LPS stimulation, MSD cytokine detection; assay type: cell-based; settings: Bos taurus, fresh whole bovine blood
[4] = harmonized survival relative to vehicle and M9, 20 mg/kg subcutaneous, Day 10

Row | Structure (SMILES) | % Survival ([2]; 46572, sc, 20 mg/kg, 240 h) [%] | % Survival [2, 4] [%] | also measured
1 | CCCNC[C@]1(O)[C@H](C)O[C@@H](O[C@H]2[C@H](C)[C@@H](O[C@@H]3O[C@H](C)C[C@H](NC)[C@H]3Oc3ncc(Cl)cn3)[C@](C)(O)C[C@@H](C)CN[C@H](C)[C@@H](O)[C@](C)(O)[C@@H](CC)OC(=O)[C@@H]2C)C[C@@]1(C)OC [Example E-30, (2R,3S,4R,5R,8R,10R,11R,12S,13S,14R)-11-(((2S,3R,4S,6R)-3-((5-chloropyrimidin-2-yl)oxy)-6-methyl-4-(methylamino)tetrahydro-2H-pyran-2-yl)oxy)-2-ethyl-3,4,10-trihydroxy-13-(((2R,4R,5S,6S)-5-hydroxy-4-methoxy-4,6-dimethyl-5-((propylamino)methyl)tetrahydro-2H-pyran-2-yl)oxy)-3,5,8,10,12,14-hexamethyl-1-oxa-6-azacyclopentadecan-15-one] | 22 |  | IL-1ß OS of LPS [1]: 13 µM; IC50 [3]: 7 µM
2 | CCCNC[C@]1(O)[C@H](C)O[C@@H](O[C@H]2[C@H](C)[C@@H](O[C@@H]3O[C@H](C)C[C@H](N(C)C(=O)N(C)c4cc(C)n(C)n4)[C@H]3Oc3ccccc3)[C@](C)(O)C[C@@H](C)CN[C@H](C)[C@@H](O)[C@](C)(O)[C@@H](CC)OC(=O)[C@@H]2C)C[C@@]1(C)OC [Example F-19, 1-(1,5-dimethyl-1H-pyrazol-3-yl)-3-((2S,3R,4S,6R)-2-(((2R,3S,4R,5R,8R,10R,11R,12S,13S,14R)-2-ethyl-3,4,10-trihydroxy-13-(((2R,4R,5S,6S)-5-hydroxy-4-methoxy-4,6-dimethyl-5-((propylamino)methyl)tetrahydro-2H-pyran-2-yl)oxy)-3,5,8,10,12,14-hexamethyl-15-oxo-1-oxa-6-azacyclopentadecan-11-yl)oxy)-6-methyl-3-phenoxytetrahydro-2H-pyran-4-yl)-1,3-dimethylurea] | 35 |  | 
3 | CCCNC[C@]1(O)[C@H](C)O[C@@H](O[C@H]2[C@H](C)[C@@H](O[C@@H]3O[C@H](C)C[C@H](N(C)C)[C@H]3Oc3ccccc3)[C@](C)(O)C[C@@H](C)CN[C@H](C)[C@@H](O)[C@](C)(O)[C@@H](CC)OC(=O)[C@@H]2C)C[C@@]1(C)OC [Example E-3, (2R,3S,4R,5R,8R,10R,11R,12S,13S,14R)-11-(((2S,3R,4S,6R)-4-(dimethylamino)-6-methyl-3-phenoxytetrahydro-2H-pyran-2-yl)oxy)-2-ethyl-3,4,10-trihydroxy-13-(((2R,4R,5S,6S)-5-hydroxy-4-methoxy-4,6-dimethyl-5-((propylamino)methyl)tetrahydro-2H-pyran-2-yl)oxy)-3,5,8,10,12,14-hexamethyl-1-oxa-6-azacyclopentadecan-15-one] | 37 |  | IL-1ß OS of LPS [1]: 13 µM; IC50 [3]: 8 µM
4 | CCCNC[C@]1(O)[C@H](C)O[C@@H](O[C@H]2[C@H](C)[C@@H](O[C@@H]3O[C@H](C)C[C@H](N(C)C(=O)N(C)c4ccc(C(F)(F)F)cc4)[C@H]3O)[C@](C)(O)C[C@@H](C)CN[C@H](C)[C@@H](O)[C@](C)(O)[C@@H](CC)OC(=O)[C@@H]2C)C[C@@]1(C)OC [Example H-13] |  | 59 | 
5 | CCCNC[C@]1(O)[C@H](C)O[C@@H](O[C@H]2[C@H](C)[C@@H](O[C@@H]3O[C@H](C)C[C@H](N(C)C(=O)N(c4ccccc4)c4ccccc4)[C@H]3O)[C@](C)(O)C[C@@H](C)CN[C@H](C)[C@@H](O)[C@](C)(O)[C@@H](CC)OC(=O)[C@@H]2C)C[C@@]1(C)OC [Example H-39] |  | 44 | 
6 | CC[C@H]1OC(=O)[C@H](C)[C@@H](O)[C@H](C)[C@@H](O[C@@H]2O[C@H](C)C[C@H](N(C)C(=O)N(C)c3cc(C)n(C)n3)[C@H]2Oc2ccccc2)[C@](C)(O)C[C@@H](C)CN[C@H](C)[C@@H](O)[C@]1(C)O [Example C-26, 1-(1,5-dimethyl-1H-pyrazol-3-yl)-3-((2S,3R,4S,6R)-2-(((2R,3S,4R,5R,8R,10R,11R,12S,13S,14R)-2-ethyl-3,4,10,13-tetrahydroxy-3,5,8,10,12,14-hexamethyl-15-oxo-1-oxa-6-azacyclopentadecan-11-yl)oxy)-6-methyl-3-phenoxytetrahydro-2H-pyran-4-yl)-1,3-dimethylurea] | 8 |  | 
7 | CC[C@H]1OC(=O)[C@H](C)[C@@H](O)[C@H](C)[C@@H](O[C@@H]2O[C@H](C)C[C@H](N(C)C(=O)N(C)c3cc(C)n(C)n3)[C@H]2Oc2ccccc2)[C@](C)(O)C[C@@H](C)CN(C)[C@H](C)[C@@H](O)[C@]1(C)O [Example C-30, 1-(1,5-dimethyl-1H-pyrazol-3-yl)-3-((2S,3R,4S,6R)-2-(((2R,3S,4R,5R,8R,10R,11R,12S,13S,14R)-2-ethyl-3,4,10,13-tetrahydroxy-3,5,6,8,10,12,14-heptamethyl-15-oxo-1-oxa-6-azacyclopentadecan-11-yl)oxy)-6-methyl-3-phenoxytetrahydro-2H-pyran-4-yl)-1,3-dimethylurea] | 0 |  | 
8 | CCCNC[C@]1(O)[C@H](C)O[C@@H](O[C@H]2[C@H](C)[C@@H](O[C@@H]3O[C@H](C)C[C@H](N(C)C(=O)N(C)c4ccccc4)[C@H]3O)[C@](C)(O)C[C@@H](C)CN[C@H](C)[C@@H](O)[C@](C)(O)[C@@H](CC)OC(=O)[C@@H]2C)C[C@@]1(C)OC [Example H-11] |  | 36 | 
9 | CCCNC[C@]1(O)[C@H](C)O[C@@H](O[C@H]2[C@H](C)[C@@H](O[C@@H]3O[C@H](C)C[C@H](N(Cc4nccs4)C(=O)N(C)c4ccccc4)[C@H]3O)[C@](C)(O)C[C@@H](C)CN[C@H](C)[C@@H](O)[C@](C)(O)[C@@H](CC)OC(=O)[C@@H]2C)C[C@@]1(C)OC [Example H-64] |  | 0 | 
10 | CC[C@H]1OC(=O)[C@H](C)[C@@H](O)[C@H](C)[C@@H](O[C@@H]2O[C@H](C)C[C@H](N(C)C(=O)N(C)c3ccccc3)[C@H]2Oc2ccccc2)[C@](C)(O)C[C@@H](C)CN(C)[C@H](C)[C@@H](O)[C@]1(C)O [Example C-12, 1-((2S,3R,4S,6R)-2-(((2R,3S,4R,5R,8R,10R,11R,12S,13S,14R)-2-ethyl-3,4,10,13-tetrahydroxy-3,5,6,8,10,12,14-heptamethyl-15-oxo-1-oxa-6-azacyclopentadecan-11-yl)oxy)-6-methyl-3-phenoxytetrahydro-2H-pyran-4-yl)-1,3-dimethyl-3-phenylurea] | 12 |  | 
11 | CC[C@H]1OC(=O)[C@H](C)[C@@H](O[C@H]2C[C@@](C)(OC)[C@](O)(CN3CCOCC3)[C@H](C)O2)[C@H](C)[C@@H](O[C@@H]2O[C@H](C)C[C@H](N(C)C)[C@H]2Oc2ccccc2)[C@](C)(O)C[C@@H](C)CN[C@H](C)[C@@H](O)[C@]1(C)O [Example H-3, (2R,3S,4R,5R,8R,10R,11R,12S,13S,14R)-11-(((2S,3R,4S,6R)-4-(dimethylamino)-6-methyl-3-phenoxytetrahydro-2H-pyran-2-yl)oxy)-2-ethyl-3,4,10-trihydroxy-13-(((2R,4R,5S,6S)-5-hydroxy-4-methoxy-4,6-dimethyl-5-(morpholinomethyl)tetrahydro-2H-pyran-2-yl)oxy)-3,5,8,10,12,14-hexamethyl-1-oxa-6-azacyclopentadecan-15-one] | 8 |  | 
